# In patent US8541407B2 (ArQule, Inc., priority 2010, dated 2013):
# Target: AKT1 (Homo sapiens (Human), UniProt P31749)
# Test: Inactive Akt Alpha Screen Assay
# Conditions: non *labeled: Akt Alpha Screen assay; read-out: AKT1 biochemical assay, IC50
# Procedure: AKT1 activity was assayed using the GSK3-derived biotinylated peptide substrate, crosstide (biotin-[…]), and AlphaScreen™ (Amplified Luminescent Proximity Homogeneous Assay) technology. AKT1 activation was achieved by the addition of the activating kinases PDK1 and MAPKAPK2, lipid vesicles, and ATP. The extent of peptide phosphorylation was determined using a phospho-AKT substrate antibody and acceptor beads conjugated to Protein A and donor beads conjugated to streptavidin that bind to the biotin on the peptide. Excitation of the donor beads converted ambient oxygen to excited singlet oxygen which, when in close proximity to acceptor beads, reacted with acceptor beads resulting in signal amplification. […] The plates were incubated for 30 minutes at room temperature, and then stopped in the dark by the addition of 10 μL stop/detection mixture prepared in assay buffer containing EDTA, AlphaScreen™ Streptavidin Donor and Protein A Acceptor beads, and phospho-AKT substrate antibody for final concentrations of 10 mM EDTA, 500 ng/well of both AlphaScreen™ Streptavidin Donor beads and Protein A Acceptor beads, and phospho-AKT substrate antibody at a final dilution of 1:350. Assay plates were incubated for 90 minutes at room temperature in the dark, and the plates were read on a Perkin Elmer Envision Multilabel plate reader (excitation wavelength: […], emission wavelength: 570 nm). […] Envision Instrument Settings: • Instrument: Perkin Elmer Envision • Plate: 96 well • Program Name: • Excitation: Ex Top • Mirror: General Dual—Slot 2 • Excitation Filter: CFP430 Ex.
# AKT1, sequence (P31749 whole entry): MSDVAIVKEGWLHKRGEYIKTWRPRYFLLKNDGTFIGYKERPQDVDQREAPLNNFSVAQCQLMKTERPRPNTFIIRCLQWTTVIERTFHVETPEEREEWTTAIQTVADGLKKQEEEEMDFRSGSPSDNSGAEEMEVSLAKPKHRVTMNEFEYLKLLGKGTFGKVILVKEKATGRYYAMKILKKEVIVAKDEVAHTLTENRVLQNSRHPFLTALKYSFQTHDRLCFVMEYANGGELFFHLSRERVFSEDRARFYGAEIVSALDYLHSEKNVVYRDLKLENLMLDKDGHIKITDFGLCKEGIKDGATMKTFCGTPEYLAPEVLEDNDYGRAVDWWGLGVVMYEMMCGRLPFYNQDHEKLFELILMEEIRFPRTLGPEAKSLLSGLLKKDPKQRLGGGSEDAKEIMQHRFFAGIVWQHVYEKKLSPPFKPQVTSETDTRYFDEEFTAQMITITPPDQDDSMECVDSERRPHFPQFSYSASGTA
row,Structure (SMILES),IC50 [nM]
1,"CN(CCc1ccccc1)Cc1ccc(-c2nnc3n2-c2cccnc2Nc2ccccc2-3)cc1 [Example 79, N-(4-(9H-benzo[f]pyrido[2,3-b][1,2,4]triazolo[4,3-d][1,4]diazepin-3-yl)benzyl)-N-methyl-2-phenylethanamine]",780
2,"OC1(c2ccccc2)CCN(Cc2ccc(-c3nnc4n3-c3cccnc3Nc3ccccc3-4)cc2)CC1 [Example 80, 1-(4-(9H-benzo[f]pyrido[2,3-b][1,2,4]triazolo[4,3-d][1,4]diazepin-3-yl)benzyl)-4-phenylpiperidin-4-ol]",1900
3,"CCN(CC)C(=O)C1CCCN(Cc2ccc(-c3nnc4n3-c3cccnc3Nc3ccccc3-4)cc2)C1 (centres unmarked) [Example 81, 1-(4-(9H-benzo[f]pyrido[2,3-b][1,2,4]triazolo[4,3-d][1,4]diazepin-3-yl)benzyl)-N,N-diethylpiperidine-3-carboxamide]",4800
4,"c1ccc(CN2CCN(Cc3ccc(-c4nnc5n4-c4cccnc4Nc4ccccc4-5)cc3)CC2)cc1 [Example 82, 3-(4-((4-benzylpiperazin-1-yl)methyl)phenyl)-9H-benzo[f]pyrido[2,3-b][1,2,4]triazolo[4,3-d][1,4]diazepine]",5300
5,"c1ccc2c(c1)Nc1ncccc1-n1c(-c3ccc(CN4CCOCC4)cc3)nnc1-2 [Example 84, 4-(4-(9H-benzo[f]pyrido[2,3-b][1,2,4]triazolo[4,3-d][1,4]diazepin-3-yl)benzyl)morpholine]",1600
6,"CCCNCc1ccc(-c2nnc3n2-c2cccnc2Nc2ccccc2-3)cc1 [Example 87, N-(4-(9H-benzo[f]pyrido[2,3-b][1,2,4]triazolo[4,3-d][1,4]diazepin-3-yl)benzyl)propan-1-amine]",5800
7,"CCOC(=O)N1CCC(NCc2ccc(-c3nnc4n3-c3cccnc3Nc3ccccc3-4)cc2)CC1 [Example 89, ethyl 4-((4-(9H-benzo[f]pyrido[2,3-b][1,2,4]triazolo[4,3-d][1,4]diazepin-3-yl)benzyl)amino)piperidine-1-carboxylate]",2300
8,"CCCN(C)Cc1ccc(-c2nnc3n2-c2cccnc2Nc2ccccc2-3)cc1 [Example 90, N-(4-(9H-benzo[f]pyrido[2,3-b][1,2,4]triazolo[4,3-d][1,4]diazepin-3-yl)benzyl)-N-methylpropan-1-amine]",2500
9,"O=C(c1ccco1)N1CCN(Cc2ccc(-c3nnc4n3-c3cccnc3Nc3ccccc3-4)cc2)CC1 [Example 92, (4-(4-(9H-benzo[f]pyrido[2,3-b][1,2,4]triazolo[4,3-d][1,4]diazepin-3-yl)benzyl)piperazin-1-yl)(furan-2-yl)methanone]",1400
10,"c1ccc2c(c1)Nc1ncccc1-n1c(-c3ccc(CNCC4CC4)cc3)nnc1-2 [Example 93, N-(4-(9H-benzo[f]pyrido[2,3-b][1,2,4]triazolo[4,3-d][1,4]diazepin-3-yl)benzyl)-1-cyclopropylmethanamine]",6700
11,"c1ccc(CCN2CCN(Cc3ccc(-c4nnc5n4-c4cccnc4Nc4ccccc4-5)cc3)CC2)cc1 [Example 94, 3-(4-((4-phenethylpiperazin-1-yl)methyl)phenyl)-9H-benzo[f]pyrido[2,3-b][1,2,4]triazolo[4,3-d][1,4]diazepine]",5800
12,"O=C(NCc1ccc(-c2nnc3n2-c2cccnc2Nc2ccccc2-3)cc1)c1ccc(F)cc1 [Example 95, N-(4-(9H-benzo[f]pyrido[2,3-b][1,2,4]triazolo[4,3-d][1,4]diazepin-3-yl)benzyl)-4-fluorobenzamide]",300
13,"O=C(NCc1ccc(-c2nnc3n2-c2cccnc2Nc2ccccc2-3)cc1)c1ccccc1 [Example 99, N-(4-(9H-benzo[f]pyrido[2,3-b][1,2,4]triazolo[4,3-d][1,4]diazepin-3-yl)benzyl)benzamide]",200
14,"O=C(NCc1ccc(-c2nnc3n2-c2cccnc2Nc2ccccc2-3)cc1)C1CCC1 [Example 100, N-(4-(9H-benzo[f]pyrido[2,3-b][1,2,4]triazolo[4,3-d][1,4]diazepin-3-yl)benzyl)cyclobutanecarboxamide]",1800
15,"COc1ccc(S(=O)(=O)NCc2ccc(-c3nnc4n3-c3cccnc3Nc3ccccc3-4)cc2)cc1 [Example 102, N-(4-(9H-benzo[f]pyrido[2,3-b][1,2,4]triazolo[4,3-d][1,4]diazepin-3-yl)benzyl)-4-methoxybenzenesulfonamide]",800
16,"Cn1cnc(S(=O)(=O)NCc2ccc(-c3nnc4n3-c3cccnc3Nc3ccccc3-4)cc2)c1 [Example 103, N-(4-(9H-benzo[f]pyrido[2,3-b][1,2,4]triazolo[4,3-d][1,4]diazepin-3-yl)benzyl)-1-methyl-1H-imidazole-4-sulfonamide]",240
17,"O=S(=O)(Nc1ccc(-c2nnc3n2-c2cccnc2Nc2ccccc2-3)cc1)c1ccccc1 [Example 106, N-(4-(9H-benzo[f]pyrido[2,3-b][1,2,4]triazolo[4,3-d][1,4]diazepin-3-yl)phenyl)benzenesulfonamide]",6600
18,"O=C(NCc1ccc(-c2nnc3n2-c2cccnc2Nc2ccccc2-3)cc1)Nc1ccccc1 [Example 107, 1-(4-(9H-benzo[f]pyrido[2,3-b][1,2,4]triazolo[4,3-d][1,4]diazepin-3-yl)benzyl)-3-phenylurea]",2900

# More lines, in order of falling IC50, values ahead:
row,IC50 [nM],Structure (SMILES)
1,8300,"OCC1CCN(Cc2ccc(-c3nnc4n3-c3cccnc3Nc3ccccc3-4)cc2)CC1 [Example 76, (1-(4-(9H-benzo[f]pyrido[2,3-b][1,2,4]triazolo[4,3-d][1,4]diazepin-3-yl)benzyl)piperidin-4-yl)methanol]"
2,7100,"CC(C)CN(C)Cc1ccc(-c2nnc3n2-c2cccnc2Nc2ccccc2-3)cc1 [Example 85, N-(4-(9H-benzo[f]pyrido[2,3-b][1,2,4]triazolo[4,3-d][1,4]diazepin-3-yl)benzyl)-N,2-dimethylpropan-1-amine]"
3,5700,"OC1CCCN(Cc2ccc(-c3nnc4n3-c3cccnc3Nc3ccccc3-4)cc2)C1 (centres unmarked) [Example 83, 1-(4-(9H-benzo[f]pyrido[2,3-b][1,2,4]triazolo[4,3-d][1,4]diazepin-3-yl)benzyl)piperidin-3-ol]"
4,5500,"CN1CCC(N(C)Cc2ccc(-c3nnc4n3-c3cccnc3Nc3ccccc3-4)cc2)CC1 [Example 88, N-(4-(9H-benzo[f]pyrido[2,3-b][1,2,4]triazolo[4,3-d][1,4]diazepin-3-yl)benzyl)-N,1-dimethylpiperidin-4-amine]"
5,4700,"COCCN(C)Cc1ccc(-c2nnc3n2-c2cccnc2Nc2ccccc2-3)cc1 [Example 77, N-(4-(9H-benzo[f]pyrido[2,3-b][1,2,4]triazolo[4,3-d][1,4]diazepin-3-yl)benzyl)-2-methoxy-N-methylethanamine]"
6,4400,"O=C1CCCN1CCCNCc1ccc(-c2nnc3n2-c2cccnc2Nc2ccccc2-3)cc1 [Example 78, 1-(3-((4-(9H-benzo[f]pyrido[2,3-b][1,2,4]triazolo[4,3-d][1,4]diazepin-3-yl)benzyl)amino)propyl)pyrrolidin-2-one]"
7,3400,"CC(=O)NC1CCN(Cc2ccc(-c3nnc4n3-c3cccnc3Nc3ccccc3-4)cc2)C1 (centres unmarked) [Example 86, N-(1-(4-(9H-benzo[f]pyrido[2,3-b][1,2,4]triazolo[4,3-d][1,4]diazepin-3-yl)benzyl)pyrrolidin-3-yl)acetamide]"
8,2800,"Cc1ccc(CN2CCN(Cc3ccc(-c4nnc5n4-c4cccnc4Nc4ccccc4-5)cc3)CC2)cc1 [Example 91, 3-(4-((4-(4-methylbenzyl)piperazin-1-yl)methyl)phenyl)-9H-benzo[f]pyrido[2,3-b][1,2,4]triazolo[4,3-d][1,4]diazepine]"
9,1100,"CN(CCc1ccccn1)Cc1ccc(-c2nnc3n2-c2cccnc2Nc2ccccc2-3)cc1 [Example 75, N-(4-(9H-benzo[f]pyrido[2,3-b][1,2,4]triazolo[4,3-d][1,4]diazepin-3-yl)benzyl)-N-methyl-2-(pyridin-2-yl)ethanamine]"
10,1100,"O=C(NCc1ccc(-c2nnc3n2-c2cccnc2Nc2ccccc2-3)cc1)c1ccco1 [Example 97, N-(4-(9H-benzo[f]pyrido[2,3-b][1,2,4]triazolo[4,3-d][1,4]diazepin-3-yl)benzyl)furan-2-carboxamide]"
11,220,"O=S(=O)(NCc1ccc(-c2nnc3n2-c2cccnc2Nc2ccccc2-3)cc1)c1cccnc1 [Example 105, N-(4-(9H-benzo[f]pyrido[2,3-b][1,2,4]triazolo[4,3-d][1,4]diazepin-3-yl)benzyl)pyridine-3-sulfonamide]"
12,200,"O=C(NCc1ccc(-c2nnc3n2-c2cccnc2Nc2ccccc2-3)cc1)c1cccnc1 [Example 96, N-(4-(9H-benzo[f]pyrido[2,3-b][1,2,4]triazolo[4,3-d][1,4]diazepin-3-yl)benzyl)nicotinamide]"
13,140,"O=S(=O)(NCc1ccc(-c2nnc3n2-c2cccnc2Nc2ccccc2-3)cc1)c1ccccc1 [Example 101, N-(4-(9H-benzo[f]pyrido[2,3-b][1,2,4]triazolo[4,3-d][1,4]diazepin-3-yl)benzyl)benzenesulfonamide]"
14,120,"Cn1ccc(S(=O)(=O)NCc2ccc(-c3nnc4n3-c3cccnc3Nc3ccccc3-4)cc2)n1 [Example 104, N-(4-(9H-benzo[f]pyrido[2,3-b][1,2,4]triazolo[4,3-d][1,4]diazepin-3-yl)benzyl)-1-methyl-1H-pyrazole-3-sulfonamide]"
